# Measurements from US20240285557A1, “PHARMACEUTICAL COMPOSITION COMPRISING LIPASE INHIBITOR FOR TREATMENT OR TREATMENT OF RNA VIRAL INFECTIONS” (priority 2021, published 2024).
# System: SARS-COV-2 KCDC03 strain (A lineage), KDCA51463 strain (Alpha lineage), and KDCA55905 strain (Beta lineage)
# Format: in vivo, Golden Syrian hamsters
# Details: 40 mg kg^−1 day^−1 lipase inhibitor, 2.5 mg/kg/day remdesivir
structure (smiles),measurement,value
CCN(CC)C(=O)Nc1cccc(-c2ccc(N(C)C)cc2)c1 [DABPU-DE],"pneumonia severity (and weight loss), comparison between treatment groups",more improvement
